According to patent publication US8497277B2, “Inhibitors of Bruton's tyrosine kinase” (Pharmacyclics, Inc., priority 2006, dated 2013):
One block for each compound: values may come before it.

How the values were obtained:
DHL-6 cells = assay: DHL-6 cell growth (Alamar Blue assay); type: cell-based; settings: 3E4 DHL-6 cells/well in complete media, 0.1% DMSO
in vivo = settings: female, Balb/c, mouse, plasma, po
Btk = Btk (Homo sapiens (Human), UniProt Q06187); assay: Btk acellular kinase assay (TR-FRET); settings: Btk IC50 relative to compound 4
Btk, sequence (Q06187 whole entry): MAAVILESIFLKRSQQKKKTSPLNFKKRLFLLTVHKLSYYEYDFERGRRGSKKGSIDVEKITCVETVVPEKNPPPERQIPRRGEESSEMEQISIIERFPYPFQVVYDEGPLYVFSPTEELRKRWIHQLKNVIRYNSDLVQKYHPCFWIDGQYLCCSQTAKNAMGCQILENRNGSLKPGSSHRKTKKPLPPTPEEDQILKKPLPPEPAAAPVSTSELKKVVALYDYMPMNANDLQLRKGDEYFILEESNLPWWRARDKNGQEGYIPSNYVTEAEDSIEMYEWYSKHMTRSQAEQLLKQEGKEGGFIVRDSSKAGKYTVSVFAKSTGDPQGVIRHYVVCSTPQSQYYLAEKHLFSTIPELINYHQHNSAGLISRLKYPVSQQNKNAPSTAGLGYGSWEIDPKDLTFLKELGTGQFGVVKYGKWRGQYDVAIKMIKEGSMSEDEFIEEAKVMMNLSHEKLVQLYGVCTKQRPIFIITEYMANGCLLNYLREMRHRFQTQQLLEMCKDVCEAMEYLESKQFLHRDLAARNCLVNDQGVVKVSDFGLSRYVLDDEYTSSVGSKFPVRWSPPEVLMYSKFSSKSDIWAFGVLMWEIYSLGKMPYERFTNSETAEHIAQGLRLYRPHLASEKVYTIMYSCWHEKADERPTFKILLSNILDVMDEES

Compound: CN(C)C/C=C/C(=O)N1CCCC(n2nc(-c3ccc(Oc4ccccc4)cc3)c3c(N)ncnc32)C1 (stereo not drawn) [Compound 15, (E)-1-(3-(4-amino-3-(4-phenoxyphenyl)-1H-pyrazolo[3,4-d]pyrimidin-1-yl)piperidin-1-yl)-4-(dimethylamino)but-2-en-1-one]
growth of DHL-6 cells (DHL-6 cells): inhibit growth

Tmax (in vivo): 2 h
Compound: C=CC(=O)N1CCCC(n2nc(-c3ccc(Oc4ccccc4)cc3)c3c(N)ncnc32)C1 (stereo not drawn) [Compound 4, 1-(3-(4-amino-3-(4-phenoxyphenyl)-1H-pyrazolo[3,4-d]pyrimidin-1-yl)piperidin-1-yl)prop-2-en-1-one]

fold less potent than 4 (Btk): 28 fold
Compound: C/C=C/C(=O)N1CCCC(n2nc(-c3ccc(Oc4ccccc4)cc3)c3c(N)ncnc32)C1 (stereo not drawn) [Compound 5, (E)-1-(3-(4-amino-3-(4-phenoxyphenyl)-1H-pyrazolo[3,4-d]pyrimidin-1-yl)piperidin-1-yl)but-2-en-1-one]
